#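 Grown in 96-well plates, cells were treated for 48 hours with each compound at five concentrations. Insufficient inhibition: endpoint recorded as highest concentration tested. The concentration for full growth arrest is given as TGI.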
# Tests used:
# Assay in all cases: inhibition of tumour cell growth, NCI panel, 48 h
# CCRF-CEM leukemia = test system: CCRF-CEM leukemia
# SK-OV-3 ovarian = test system: SK-OV-3 ovarian
# TK-10 renal = test system: TK-10 renal
# SW-620 colon = test system: SW-620 colon
# MOLT-4 leukemia = test system: MOLT-4 leukemia
# HOP-92 NSCLC = test system: HOP-92 NSCLC
# CAKI-1 renal = test system: CAKI-1 renal
# RPMI-8226 leukemia = test system: RPMI-8226 leukemia
# PC-3 prostate = test system: PC-3 prostate
# HCC-2998 colon = test system: HCC-2998 colon
# KM12 colon = test system: KM12 colon
# ACHN renal = test system: ACHN renal
# OVCAR-5 ovarian = test system: OVCAR-5 ovarian
# NCI-H226 lung = test system: NCI-H226 lung
# SF-295 CNS = test system: SF-295 CNS
# U251 CNS = test system: U251 CNS
# SF-539 CNS = test system: SF-539 CNS
# COLO 205 colon = test system: COLO 205 colon
# SN12C renal = test system: SN12C renal
# HCT-116 colon = test system: HCT-116 colon
# MDA-MB-435 = test system: MDA-MB-435
# SK-MEL-5 melanoma = test system: SK-MEL-5 melanoma
# NCI/ADR-RES ovarian = test system: NCI/ADR-RES ovarian
# MDA-N = test system: MDA-N
# A549 NSCLC = test system: A549 NSCLC
# OVCAR-3 ovarian = test system: OVCAR-3 ovarian
# HS 578T breast = test system: HS 578T breast
# NCI-H522 lung = test system: NCI-H522 lung
# MDA-MB-231 breast = test system: MDA-MB-231 breast
# HCT-15 colon = test system: HCT-15 colon
# HOP-62 NSCLC = test system: HOP-62 NSCLC
# RXF 393 renal = test system: RXF 393 renal
# DU-145 prostate = test system: DU-145 prostate
# MCF7 breast = test system: MCF7 breast
# SK-MEL-2 melanoma = test system: SK-MEL-2 melanoma
# SR leukemia = test system: SR leukemia
# SF-268 CNS = test system: SF-268 CNS
# EKVX NSCLC = test system: EKVX NSCLC
# K-562 leukemia = test system: K-562 leukemia
# NCI-H460 lung = test system: NCI-H460 lung
# BT-549 breast = test system: BT-549 breast
# IGROV1 ovarian = test system: IGROV1 ovarian
# HT29 colon = test system: HT29 colon
# NCI-H23 lung = test system: NCI-H23 lung
# OVCAR-8 ovarian = test system: OVCAR-8 ovarian
# 786-0 renal = test system: 786-0 renal
# SNB-75 CNS = test system: SNB-75 CNS
# SK-MEL-28 melanoma = test system: SK-MEL-28 melanoma
# HL-60(TB) leukemia = test system: HL-60(TB) leukemia
# A498 renal = test system: A498 renal
# UACC-62 melanoma = test system: UACC-62 melanoma
# MALME-3M melanoma = test system: MALME-3M melanoma
# UO-31 renal = test system: UO-31 renal
# OVCAR-4 ovarian = test system: OVCAR-4 ovarian
# T-47D breast = test system: T-47D breast
# LOX IMVI melanoma = test system: LOX IMVI melanoma
# SNB-19 CNS = test system: SNB-19 CNS
# M14 melanoma = test system: M14 melanoma
# UACC-257 melanoma = test system: UACC-257 melanoma
smiles,measurement,setting,value
COC(=O)C1=NN2c3ccccc3C(=O)OCCC2(C)C1 (configuration not stated),TGI,CCRF-CEM leukemia,> 100 µM
same,TGI,SK-OV-3 ovarian,> 100 µM
same,TGI,TK-10 renal,> 100 µM
same,TGI,SW-620 colon,> 100 µM
same,TGI,MOLT-4 leukemia,> 100 µM
same,TGI,HOP-92 NSCLC,> 100 µM
same,TGI,CAKI-1 renal,> 100 µM
same,TGI,RPMI-8226 leukemia,> 100 µM
same,TGI,PC-3 prostate,> 100 µM
same,TGI,HCC-2998 colon,> 100 µM
same,TGI,KM12 colon,> 100 µM
same,TGI,ACHN renal,> 100 µM
same,TGI,OVCAR-5 ovarian,> 100 µM
same,TGI,NCI-H226 lung,> 100 µM
same,TGI,SF-295 CNS,> 100 µM
same,TGI,U251 CNS,> 100 µM
same,TGI,SF-539 CNS,> 100 µM
same,TGI,COLO 205 colon,> 100 µM
same,TGI,SN12C renal,> 100 µM
same,TGI,HCT-116 colon,> 100 µM
same,TGI,MDA-MB-435,> 100 µM
same,TGI,SK-MEL-5 melanoma,> 100 µM
same,TGI,NCI/ADR-RES ovarian,> 100 µM
same,TGI,MDA-N,> 100 µM
same,TGI,A549 NSCLC,> 100 µM
same,TGI,OVCAR-3 ovarian,> 100 µM
same,TGI,HS 578T breast,> 100 µM
same,TGI,NCI-H522 lung,> 100 µM
same,TGI,MDA-MB-231 breast,> 100 µM
same,TGI,HCT-15 colon,> 100 µM
same,TGI,HOP-62 NSCLC,> 100 µM
same,TGI,RXF 393 renal,> 100 µM
same,TGI,DU-145 prostate,> 100 µM
same,TGI,MCF7 breast,> 100 µM
same,TGI,SK-MEL-2 melanoma,> 100 µM
same,TGI,SR leukemia,> 100 µM
same,TGI,SF-268 CNS,> 100 µM
same,TGI,EKVX NSCLC,> 100 µM
same,TGI,K-562 leukemia,> 100 µM
same,TGI,NCI-H460 lung,> 100 µM
same,TGI,BT-549 breast,> 100 µM
same,TGI,IGROV1 ovarian,> 100 µM
same,TGI,HT29 colon,> 100 µM
same,TGI,NCI-H23 lung,> 100 µM
same,TGI,OVCAR-8 ovarian,> 100 µM
same,TGI,786-0 renal,> 100 µM
same,TGI,SNB-75 CNS,> 100 µM
same,TGI,SK-MEL-28 melanoma,> 100 µM
same,TGI,HL-60(TB) leukemia,> 100 µM
same,TGI,A498 renal,> 100 µM
same,TGI,UACC-62 melanoma,> 100 µM
same,TGI,MALME-3M melanoma,> 100 µM
same,TGI,UO-31 renal,> 100 µM
same,TGI,OVCAR-4 ovarian,> 100 µM
same,TGI,T-47D breast,> 100 µM
same,TGI,LOX IMVI melanoma,> 100 µM
O=[N+]([O-])c1cc(CCl)ccc1CCl,TGI,CCRF-CEM leukemia,3.14 µM
same,TGI,SK-OV-3 ovarian,26 µM
same,TGI,TK-10 renal,8.23 µM
same,TGI,SW-620 colon,4.54 µM
same,TGI,MOLT-4 leukemia,12.6 µM
same,TGI,HOP-92 NSCLC,3.37 µM
same,TGI,CAKI-1 renal,2.76 µM
same,TGI,RPMI-8226 leukemia,3.91 µM
same,TGI,PC-3 prostate,3.08 µM
same,TGI,HCC-2998 colon,4.01 µM
same,TGI,KM12 colon,3.25 µM
same,TGI,ACHN renal,3.09 µM
same,TGI,OVCAR-5 ovarian,6.18 µM
same,TGI,NCI-H226 lung,11 µM
same,TGI,SF-295 CNS,19.7 µM
same,TGI,U251 CNS,3.14 µM
same,TGI,SF-539 CNS,7.14 µM
same,TGI,COLO 205 colon,3.19 µM
same,TGI,SN12C renal,2.97 µM
same,TGI,HCT-116 colon,3.26 µM
same,TGI,MDA-MB-435,5.05 µM
same,TGI,SNB-19 CNS,3.8 µM
same,TGI,SK-MEL-5 melanoma,11.5 µM
same,TGI,NCI/ADR-RES ovarian,8.84 µM
same,TGI,MDA-N,4.23 µM
same,TGI,A549 NSCLC,16.9 µM
same,TGI,OVCAR-3 ovarian,3.27 µM
same,TGI,HS 578T breast,11.4 µM
same,TGI,NCI-H522 lung,3.98 µM
same,TGI,M14 melanoma,3.59 µM
same,TGI,MDA-MB-231 breast,4.5 µM
same,TGI,HCT-15 colon,3.64 µM
same,TGI,HOP-62 NSCLC,2.93 µM
same,TGI,RXF 393 renal,1.65 µM
same,TGI,DU-145 prostate,2.99 µM
same,TGI,MCF7 breast,3.28 µM
same,TGI,SK-MEL-2 melanoma,7.83 µM
same,TGI,SR leukemia,5.17 µM
same,TGI,SF-268 CNS,4.21 µM
same,TGI,EKVX NSCLC,3.38 µM
same,TGI,K-562 leukemia,7.49 µM
same,TGI,NCI-H460 lung,> 39.3 µM
same,TGI,BT-549 breast,11.1 µM
same,TGI,IGROV1 ovarian,2.92 µM
same,TGI,HT29 colon,3.22 µM
same,TGI,NCI-H23 lung,5.1 µM
same,TGI,OVCAR-8 ovarian,7.17 µM
same,TGI,786-0 renal,3.34 µM
same,TGI,SNB-75 CNS,6.88 µM
same,TGI,SK-MEL-28 melanoma,5.01 µM
same,TGI,A498 renal,16.1 µM
same,TGI,UACC-257 melanoma,> 20.1 µM
same,TGI,UACC-62 melanoma,11.4 µM
same,TGI,MALME-3M melanoma,3.51 µM
same,TGI,UO-31 renal,3.18 µM
same,TGI,OVCAR-4 ovarian,3.22 µM
same,TGI,T-47D breast,1.03 µM
same,TGI,LOX IMVI melanoma,4.12 µM
COc1ccc(N=C2C(=O)C3=C(OC(C)(C)CC3)c3ccccc32)cc1,TGI,CCRF-CEM leukemia,4.43 µM
same,TGI,SK-OV-3 ovarian,4.4 µM
same,TGI,TK-10 renal,7.93 µM
same,TGI,SW-620 colon,1.56 µM
same,TGI,MOLT-4 leukemia,5.29 µM
same,TGI,HOP-92 NSCLC,22.2 µM
same,TGI,CAKI-1 renal,1.84 µM
same,TGI,PC-3 prostate,5.49 µM
same,TGI,HCC-2998 colon,3.96 µM
same,TGI,KM12 colon,1.97 µM
same,TGI,ACHN renal,1.57 µM
same,TGI,OVCAR-5 ovarian,6.14 µM
same,TGI,NCI-H226 lung,20.4 µM
same,TGI,SF-295 CNS,1.56 µM
same,TGI,U251 CNS,1.65 µM
same,TGI,SF-539 CNS,0.806 µM
same,TGI,COLO 205 colon,5.8 µM
same,TGI,SN12C renal,1.63 µM
same,TGI,HCT-116 colon,1.48 µM
same,TGI,MDA-MB-435,0.502 µM
same,TGI,SNB-19 CNS,2.36 µM
same,TGI,SK-MEL-5 melanoma,1.53 µM
same,TGI,NCI/ADR-RES ovarian,16.7 µM
same,TGI,MDA-N,1.26 µM
same,TGI,A549 NSCLC,1.94 µM
same,TGI,OVCAR-3 ovarian,1.5 µM
same,TGI,HS 578T breast,48.8 µM
same,TGI,NCI-H522 lung,2.45 µM
same,TGI,M14 melanoma,1.5 µM
same,TGI,MDA-MB-231 breast,5.44 µM
same,TGI,HCT-15 colon,10.8 µM
same,TGI,HOP-62 NSCLC,1.89 µM
same,TGI,RXF 393 renal,2.43 µM
same,TGI,DU-145 prostate,1.57 µM
same,TGI,MCF7 breast,1.87 µM
same,TGI,SK-MEL-2 melanoma,2.46 µM
same,TGI,SR leukemia,3.44 µM
same,TGI,SF-268 CNS,10.7 µM
same,TGI,EKVX NSCLC,1.86 µM
same,TGI,K-562 leukemia,2.24 µM
same,TGI,NCI-H460 lung,5.72 µM
same,TGI,BT-549 breast,2.58 µM
same,TGI,IGROV1 ovarian,11.2 µM
same,TGI,HT29 colon,1.57 µM
same,TGI,NCI-H23 lung,13 µM
same,TGI,OVCAR-8 ovarian,8.37 µM
same,TGI,786-0 renal,1.99 µM
same,TGI,SNB-75 CNS,1.96 µM
same,TGI,SK-MEL-28 melanoma,2.48 µM
same,TGI,HL-60(TB) leukemia,4.38 µM
same,TGI,A498 renal,14.7 µM
same,TGI,UACC-257 melanoma,2.09 µM
same,TGI,UACC-62 melanoma,1.74 µM
same,TGI,MALME-3M melanoma,1.59 µM
same,TGI,UO-31 renal,1.69 µM
same,TGI,OVCAR-4 ovarian,1.51 µM
same,TGI,T-47D breast,2.2 µM
same,TGI,LOX IMVI melanoma,10.3 µM

# — PubChem BioAssay (NCI)
